Assay results: US20040242693A1, “Optically active mandelic acid and its derivative, and method for crystallization thereof” (priority 2001, published 2004)

Tests used:
Format in all cases: physicochemical
[1] = Measurement of water content (Karl Fischer method); conditions: for Water content: dried crystals, Karl Fischer
Protocol: Measurement of Water Content
Water content was measured by the Karl Fischer method.

[2] = Measurement of filling (packing) density; conditions: natural drop into 50 ml measuring cylinder
Protocol: Measurement of Filling (Packing) Density
10 to 20 g of each of the crystals obtained in the above Examples and Comparative examples was weighed, and it was passed through a funnel with a diameter of 20 mm to naturally drop into a 50 ml measuring cylinder, so that the weight and volume of the crystals were measured and the filling density was calculated.

[3] = Measurement of compression rate; conditions: (volume 1−volume 2)/volume 1
Protocol: Measurement of Compression Rate
An approximately 7-cm^3 chloromandelic acid crystal was passed through a funnel with a diameter of 9 mm, and it was naturally dropped into a 10 ml measuring cylinder from a height of 20 cm, so that the volume of the crystals was measured (volume 1). Thereafter, the crystals in the measuring cylinder were compressed with a glass rod until their volume was not reduced, and the volume after the compression was measured (volume 2). Compression rate was calculated according to the following formula.
Compression rate=(volume 1−volume 2)/volume 1

[4] = Measurement of particle size distribution (sieving); conditions: for Particle size distribution 300 to 1,000 μm: sieve fraction 300 to 1,000 μm; for Particle size distribution <300 μm: sieve fraction <300 μm; for Particle size distribution 1,000 μm<: sieve fraction above 1,000 μm
Protocol: Measurement of Particle Size Distribution
The crystals were shifted using a microtype electromagnetic vibrating shifter (M-2 type, manufactured by Tsutsui Rikagaku Kikai Co., Ltd.), and their weight was measured, so that their particle size distribution was obtained. 20 g of the crystals was placed on a sieve with a mesh of 1,000 μm, and another sieve with a mesh of 300 μm was placed below the above sieve followed by vibration for 10 minutes.

[5] = Adhesiveness (crystals adhering to test tube wall); conditions: weight of adhering crystals / weight filled, test tube 16 mm
Protocol: Chloromandelic acid crystals were naturally dropped in a dry test tube having an inside diameter of 16 mm, so that the height of the crystals became approximately 10 cm. Thereafter, the test tube containing chloromandelic acid crystals was slowly inverted, so that the test tube was completely turned upside down and the crystals were dropped. Thereafter, the weight of the test tube was measured, and the weight of chloromandelic acid crystals adhered to the inner wall of the test tube was obtained. The ratio (%) of the weight of the adhering crystals to the weight of the initially filled chloromandelic acid crystals was defined as an index of adhesiveness.

[6] = Flowability (flow limit diameter through glass funnels); conditions: minimum funnel inside diameter without blockage in 5 tests, 15 g crystals
Protocol: Glass funnels obtained by connecting glass tubes (cylindrical portions) having inside diameters of 4, 5, 6, 8, 9 and 11 mm with the edges of cones with apical angles of 60° were used. The outlet of each funnel (outlet of cylindrical portion) was closed. […] During this process, the funnel should not be shaken, and chloromandelic acid crystals should not be pushed into the funnel by compression. Thereafter, each funnel containing chloromandelic acid crystals was left at rest, the outlet of the cylindrical portion of each funnel was opened, and the crystals were naturally dropped from the outlets. This operation was carried out 5 times, using each of the above described funnels having cylindrical portions with inside diameters of 4, 5, 6, 8, 9 and 11 mm. Flow limit diameter (mm) was defined as a minimum inside diameter capable of naturally dropping the total amount of chloromandelic acid crystals in all of the above 5 tests with no blockage in the funnels. The flow limit diameter was defined as an index of fluidity.

Appearance of crystals = conditions: dried crystals
Protocol: Subsequently, the (R)-2-chloromandelic acid crystals obtained in Examples 1 to 6 and Comparative examples 1 and 2 were measured regarding appearance, water content, filling density, compression rate, and particle size distribution. Each of the above items was measured according to the following methods.

Compound	Water content [1] [wt %]	Filling density [2] [g/mL]	Compression rate [3]	Particle size distribution 300 to 1,000 μm [4] [weight %]	Particle size distribution <300 μm [4] [weight %]	Particle size distribution 1,000 μm< [4] [weight %]	Adhesion rate [5] [%]	Flow limit diameter [6] [mm]	Appearance (Appearance of crystals)	Water content of crystal wet product ([1]; wet product after filtration and washing, before drying) [% by weight]
O=C(O)[C@H](O)c1ccccc1Cl [compound 2, (R)-2-chloromandelic acid, reference compound]	0.005	0.29	0.62	71.3	24.6	4.1	0.500	11	Scale	
O=C(O)[C@H](O)c1ccccc1Cl [Example 5, (R)-2-chloromandelic acid]	0.076	0.68	0.03	73.1	18.4	8.5	0.130	5	Granular	
O=C(O)[C@H](O)c1ccccc1Cl [compound 1, (R)-2-chloromandelic acid, reference compound]	0.110	0.68	0.04	46.5	46.2	7.3	0.830	9	Fine	
O=C(O)[C@H](O)c1ccccc1Cl [Example 6, (R)-2-chloromandelic acid]	0.080	0.64	0.03	71.3	19.0	9.7	0.140	5	Granular	
O=C(O)[C@H](O)c1ccccc1Cl [Example 4, (R)-2-chloromandelic acid]	0.062	0.68	0.03	72.2	17.3	10.5	0.110	5	Granular	10
O=C(O)[C@H](O)c1ccccc1Cl [Example 2, (R)-2-chloromandelic acid]	0.049	0.63	0.03	73.2	18.2	8.0	0.061	5	Granular	
O=C(O)[C@H](O)c1ccccc1Cl [Example 1, (R)-2-chloromandelic acid]	0.046	0.65	0.03	73.5	15.5	11.0	0.057	5	Granular	
O=C(O)[C@H](O)c1ccccc1Cl [Example 3, (R)-2-chloromandelic acid]	0.058	0.63	0.03	71.0	16.6	12.4	0.058	5	Granular	
